{
  "source": "PubChem BioAssay (NCI)",
  "experiment_in_all_cases": "NCI-60 cell line screen, 384-well format",
  "key": {"786-0 renal": {"tested_on": "786-0 renal"}, "A498 renal": {"tested_on": "A498 renal"}, "A549 NSCLC": {"tested_on": "A549 NSCLC"}, "ACHN renal": {"tested_on": "ACHN renal"}, "BT-549 breast": {"tested_on": "BT-549 breast"}, "CAKI-1 renal": {"tested_on": "CAKI-1 renal"}, "CCRF-CEM leukemia": {"tested_on": "CCRF-CEM leukemia"}, "COLO 205 colon": {"tested_on": "COLO 205 colon"}, "DU-145 prostate": {"tested_on": "DU-145 prostate"}, "EKVX NSCLC": {"tested_on": "EKVX NSCLC"}, "HCC-2998 colon": {"tested_on": "HCC-2998 colon"}, "HCT-116 colon": {"tested_on": "HCT-116 colon"}, "HCT-15 colon": {"tested_on": "HCT-15 colon"}, "HL-60(TB) leukemia": {"tested_on": "HL-60(TB) leukemia"}, "HOP-62 NSCLC": {"tested_on": "HOP-62 NSCLC"}, "HOP-92 NSCLC": {"tested_on": "HOP-92 NSCLC"}, "HS 578T breast": {"tested_on": "HS 578T breast"}, "HT29 colon": {"tested_on": "HT29 colon"}, "IGROV1 ovarian": {"tested_on": "IGROV1 ovarian"}, "K-562 leukemia": {"tested_on": "K-562 leukemia"}, "KM12 colon": {"tested_on": "KM12 colon"}, "LOX IMVI melanoma": {"tested_on": "LOX IMVI melanoma"}, "M14 melanoma": {"tested_on": "M14 melanoma"}, "MALME-3M melanoma": {"tested_on": "MALME-3M melanoma"}, "MCF7 breast": {"tested_on": "MCF7 breast"}, "MDA-MB-231 breast": {"tested_on": "MDA-MB-231 breast"}, "MDA-MB-435 melanoma": {"tested_on": "MDA-MB-435 melanoma"}, "MDA-MB-468 breast": {"tested_on": "MDA-MB-468 breast"}, "MOLT-4 leukemia": {"tested_on": "MOLT-4 leukemia"}, "NCI-H226 lung": {"tested_on": "NCI-H226 lung"}},
  "note": "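The concentration for 50% growth inhibition is given as GI50. At the TGI there is no net growth.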",
  "data": [
    {"compound": "COc1cc2nc(C)nc(N[C@H](C)c3cc(N)cc(C(F)(F)F)c3)c2cc1O[C@H]1CCOC1", "values": [
      {"measurement": "GI50", "setting": "786-0 renal", "value": 11.8, "unit": "µM"},
      {"measurement": "TGI", "setting": "786-0 renal", "value": 24.2, "unit": "µM"},
      {"measurement": "GI50", "setting": "A498 renal", "value": 8.87, "unit": "µM"},
      {"measurement": "TGI", "setting": "A498 renal", "value": 21.3, "unit": "µM"},
      {"measurement": "GI50", "setting": "A549 NSCLC", "value": 14.5, "unit": "µM"},
      {"measurement": "TGI", "setting": "A549 NSCLC", "value": 27.8, "unit": "µM"},
      {"measurement": "GI50", "setting": "ACHN renal", "value": 13.8, "unit": "µM"},
      {"measurement": "TGI", "setting": "ACHN renal", "value": 26.7, "unit": "µM"},
      {"measurement": "GI50", "setting": "BT-549 breast", "value": 8.77, "unit": "µM"},
      {"measurement": "TGI", "setting": "BT-549 breast", "value": 21.2, "unit": "µM"},
      {"measurement": "GI50", "setting": "CAKI-1 renal", "value": 1.97, "unit": "µM"},
      {"measurement": "TGI", "setting": "CAKI-1 renal", "value": 17, "unit": "µM"},
      {"measurement": "GI50", "setting": "CCRF-CEM leukemia", "value": 9.35, "unit": "µM"},
      {"measurement": "TGI", "setting": "CCRF-CEM leukemia", "value": 21.3, "unit": "µM"},
      {"measurement": "GI50", "setting": "COLO 205 colon", "value": 14, "unit": "µM"},
      {"measurement": "TGI", "setting": "COLO 205 colon", "value": 27.1, "unit": "µM"},
      {"measurement": "GI50", "setting": "DU-145 prostate", "value": 14.6, "unit": "µM"},
      {"measurement": "TGI", "setting": "DU-145 prostate", "value": 27.9, "unit": "µM"},
      {"measurement": "GI50", "setting": "EKVX NSCLC", "value": 2.73, "unit": "µM"},
      {"measurement": "TGI", "setting": "EKVX NSCLC", "value": 16.2, "unit": "µM"},
      {"measurement": "GI50", "setting": "HCC-2998 colon", "value": 3.6, "unit": "µM"},
      {"measurement": "TGI", "setting": "HCC-2998 colon", "value": 15.9, "unit": "µM"},
      {"measurement": "GI50", "setting": "HCT-116 colon", "value": 10.5, "unit": "µM"},
      {"measurement": "TGI", "setting": "HCT-116 colon", "value": 22.4, "unit": "µM"},
      {"measurement": "GI50", "setting": "HCT-15 colon", "value": 11.6, "unit": "µM"},
      {"measurement": "TGI", "setting": "HCT-15 colon", "value": 23.9, "unit": "µM"},
      {"measurement": "GI50", "setting": "HL-60(TB) leukemia", "value": 3.91, "unit": "µM"},
      {"measurement": "TGI", "setting": "HL-60(TB) leukemia", "value": 14.4, "unit": "µM"},
      {"measurement": "GI50", "setting": "HOP-62 NSCLC", "value": 6.98, "unit": "µM"},
      {"measurement": "TGI", "setting": "HOP-62 NSCLC", "value": 20.1, "unit": "µM"},
      {"measurement": "GI50", "setting": "HOP-92 NSCLC", "value": 0.0895, "unit": "µM"},
      {"measurement": "TGI", "setting": "HOP-92 NSCLC", "value": 5.19, "unit": "µM"},
      {"measurement": "GI50", "setting": "HS 578T breast", "value": 2.1, "unit": "µM"},
      {"measurement": "TGI", "setting": "HS 578T breast", "value": 15.9, "unit": "µM"},
      {"measurement": "GI50", "setting": "HT29 colon", "value": 4.69, "unit": "µM"},
      {"measurement": "TGI", "setting": "HT29 colon", "value": 16.2, "unit": "µM"},
      {"measurement": "GI50", "setting": "IGROV1 ovarian", "value": 8.69, "unit": "µM"},
      {"measurement": "TGI", "setting": "IGROV1 ovarian", "value": 21.5, "unit": "µM"},
      {"measurement": "GI50", "setting": "K-562 leukemia", "value": 0.0364, "unit": "µM"},
      {"measurement": "TGI", "setting": "K-562 leukemia", "value": 12.5, "unit": "µM"},
      {"measurement": "GI50", "setting": "KM12 colon", "value": 0.98, "unit": "µM"},
      {"measurement": "TGI", "setting": "KM12 colon", "value": 17.1, "unit": "µM"},
      {"measurement": "GI50", "setting": "LOX IMVI melanoma", "value": 13.4, "unit": "µM"},
      {"measurement": "TGI", "setting": "LOX IMVI melanoma", "value": 26.3, "unit": "µM"},
      {"measurement": "GI50", "setting": "M14 melanoma", "value": 11.7, "unit": "µM"},
      {"measurement": "TGI", "setting": "M14 melanoma", "value": 23.9, "unit": "µM"},
      {"measurement": "GI50", "setting": "MALME-3M melanoma", "value": 8.63, "unit": "µM"},
      {"measurement": "TGI", "setting": "MALME-3M melanoma", "value": 21.1, "unit": "µM"},
      {"measurement": "GI50", "setting": "MCF7 breast", "value": 11.3, "unit": "µM"},
      {"measurement": "TGI", "setting": "MCF7 breast", "value": 23.5, "unit": "µM"},
      {"measurement": "GI50", "setting": "MDA-MB-231 breast", "value": 13.5, "unit": "µM"},
      {"measurement": "TGI", "setting": "MDA-MB-231 breast", "value": 26.6, "unit": "µM"},
      {"measurement": "GI50", "setting": "MDA-MB-435 melanoma", "value": 14.5, "unit": "µM"},
      {"measurement": "TGI", "setting": "MDA-MB-435 melanoma", "value": 27.6, "unit": "µM"},
      {"measurement": "GI50", "setting": "MDA-MB-468 breast", "value": 1.35, "unit": "µM"},
      {"measurement": "TGI", "setting": "MDA-MB-468 breast", "value": 11.3, "unit": "µM"},
      {"measurement": "GI50", "setting": "MOLT-4 leukemia", "value": 4.45, "unit": "µM"},
      {"measurement": "TGI", "setting": "MOLT-4 leukemia", "value": 17.4, "unit": "µM"},
      {"measurement": "GI50", "setting": "NCI-H226 lung", "value": 3.24, "unit": "µM"},
      {"measurement": "TGI", "setting": "NCI-H226 lung", "value": 19.1, "unit": "µM"}
    ]}
  ]
}
